Source: US9725442B2, “Heterocyclic derivative having PGD2 receptor antagonist activity” (Shionogi & Co., Ltd., priority 2011, dated 2017)
Where two headings read alike, the source gives them in different places.

Experiments:
[1] = biological target: CYP3A4 enzyme expressed in Escherichia coli (Homo sapiens (Human), UniProt P08684); test: CYP3A4 fluorescent MBI test; assay type: in vitro ADME; settings: pre-reaction time 0 or 30 minutes, substrate 7-BFC; read-out: CYP3A4 MBI, difference between IC50 values with and without preincubation
Experimental: The CYP3A4 fluorescent MBI test is a test of investigating enhancement of CYP3A4 inhibition of a compound by a metabolism reaction, and the test was performed using, as CYP3A4 enzyme expressed in Escherichia coli and employing, as an index, a reaction in which 7-benzyloxytrifluoromethylcoumarin (7-BFC) is debenzylated by the CYP3A4 enzyme to produce a metabolite, 7-hydroxytrifluoromethylcoumarin (HFC) emitting fluorescent light.
The reaction conditions were as follows: substrate, 5.6 μmol/L 7-BFC; pre-reaction time, 0 or 30 minutes; reaction time, 15 minutes; reaction temperature, 25° C. (room temperature); CYP3A4 content (expressed in Escherichia coli), at pre-reaction […], at reaction […] (at 10-fold dilution); concentration of a compound of the present, 0.625, 1.25, 2.5, 5, 10, 20 μmol/L (six points).
An enzyme in a K-Pi buffer (pH 7.4) and a compound solution of the present invention as a pre-reaction mixture were added to a 96-well plate at the composition of the pre-reaction, a part of it was transferred to another 96-well plate so that it was 1/10 diluted by a substrate in a K-Pi buffer, NADPH as a co-factor was added to initiate a reaction as an index (without preincubation) and, after a predetermined time of a reaction, acetonitrile/0.5 mol/L Tris(trishydroxyaminomethane)=4/1 (V/V) was added to stop the reaction. In addition, NADPH was added to a remaining preincubation solution to initiate a preincubation (with preincubation) and, after a predetermined time of a preincubation, a part was transferred to another plate so that it was 1/10 diluted with a substrate and a K-Pi buffer to initiate a reaction as an index. After a predetermined time of a reaction, acetonitrile/0.5 mol/L Tris(trishydroxyaminomethane)=4/1 (V/V) was added to stop the reaction. For the plate on which each index reaction had been performed, a fluorescent value of 7-HFC which is a metabolite was measured with a fluorescent plate reader. (Ex=420 nm, Em=535 nm).

[2] = biological target: Human DP1 receptor (Homo sapiens (Human), UniProt Q13258); test: Human DP1 inhibitory activity in DP1-expressing cell (PGD2-induced cAMP); assay type: cell-based; settings: category of cAMP IC50, human DP1 receptor expressing Jurkut cell
Experimental: Compounds were categorized as AA (cAMP is less than 100 nM) and A (cAMP is more than 100 nM and less than 5000 nM) as shown in Table 99 and 100.

[3] = biological target: CYP3A4 (Homo sapiens (Human), UniProt P08684); test: CYP inhibition test, terfenedine hydroxylation; assay type: in vitro ADME; settings: pooled human hepatic microsome, 1 μmol/L terfenedine
Description: (§1) Using commercially available pooled human hepatic microsome, and employing, as markers, 7-ethoxyresorufin O-deethylation (CYP1A2), tolbutamide methyl-hydroxylation (CYP2C9), mephenyloin 4′-hydroxylation (CYP2C19), dextromethorphan O-demethylation (CYP2D6), and terfenedine hydroxylation as typical substrate metabolism reactions of human main five CYP enzyme forms (CYP1A2, 2C9, 2C19, 2D6, 3A4), an inhibitory degree of each metabolite production amount by a compound of the present compound was assessed.
(§2) The reaction conditions were as follows: substrate, 0.5 μmol/L ethoxyresorufin (CYP1A2), 100 μmol/L tolbutamide (CYP2C9), 50 μmol/L S-mephenyloin (CYP2C19), 5 μmol/L dextromethorphan (CYP2D6), 1 μmol/L terfenedine (CYP3A4); reaction time, 15 minutes; reaction temperature, 37° C.; enzyme, pooled human hepatic microsome 0.2 mg protein/mL; concentration of a compound of the present invention, 1, 5, 10, 20 μmol/L (four points).
(§3) Each five kinds of substrates, human hepatic microsome, or a compound of the present invention in 50 mM Hepes buffer as a reaction mixture was added to a 96-well plate at the composition as described above, NADPH, as a cofactor was added to initiate metabolism reactions as markers and. After the incubation at 37° C. for 15 minutes, a methanol/acetonitrile=1/1 (v/v) solution was added to stop the reaction. After the centrifugation at 3000 rpm for 15 minutes, resorufin (CYP1A2 metabolite) in the supernatant was quantified by a fluorescent multilabel counter and tolbutamide hydroxide (CYP2C9 metabolite), mephenyloin 4′ hydroxide (CYP2C19 metabolite), dextrorphan (CYP2D6 metabolite), and terfenadine alcohol (CYP3A4 metabolite) were quantified by LC/MS/MS.

[4] = biological target: CYP2C9 (Homo sapiens (Human), UniProt P11712); test: CYP inhibition test, tolbutamide methyl-hydroxylation; assay type: in vitro ADME; settings: pooled human hepatic microsome, 100 μmol/L tolbutamide
Description: as §1, §2, §3

[5] = biological target: CYP2D6 (Homo sapiens (Human), UniProt P10635); test: CYP inhibition test, dextromethorphan O-demethylation; assay type: in vitro ADME; settings: pooled human hepatic microsome, 5 μmol/L dextromethorphan
Description: as §1, §2, §3

[6] = biological target: CYP2C19 (Homo sapiens (Human), UniProt P33261); test: CYP inhibition test, mephenyloin 4'-hydroxylation; assay type: in vitro ADME; settings: pooled human hepatic microsome, 50 μmol/L S-mephenyloin
Description: as §1, §2, §3

[7] = Solubility test (1% DMSO addition, artificial intestinal juice pH 6.8); assay type: physicochemical; settings: fassgf or other biorelevant, kinetic from dmso stock, artificial intestinal juice pH 6.8, 16 hours at 25° C.
Experimental: A 10 mmol/L solution of the compound of the present invention is prepared with DMSO, and 6 μL of the compound solution is added to 594 μL of an artificial intestinal juice (water and 118 mL of 0.2 mol/L NaOH reagent are added to 250 mL of 0.2 mol/L potassium dihydrogen phosphate reagent to reach 1000 mL) with a pH of 6.8. The mixture is left standing for 16 hours at 25° C., and the mixture is vacuum-filtered. The filtrate is two-fold diluted with methanol/water=1/1 (V/V), and the compound concentration in the filtrate is measured with HPLC or LC/MS/MS by the absolute calibration method.

[8] = biological target: CYP1A2 (Homo sapiens (Human), UniProt P05177); test: CYP inhibition test, 7-ethoxyresorufin O-deethylation; assay type: in vitro ADME; settings: pooled human hepatic microsome, 0.5 μmol/L ethoxyresorufin
Description: as §1, §2, §3

[9] = biological target: T1, CRTH2 (Homo sapiens (Human), UniProt Q9Y5Y4); test: CRTH2 receptor binding inhibitory activity ([3H]-PGD2 displacement, membranes of CRTH2-expressing K562 cell); settings: [3H]-PGD2 displacement, membrane of CRTH2-expressing K562 cell, read-out: Ki
Procedure, shortened: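 Incubation ran 60 min at room temperature using 20 μg/well membrane from CRTH2-expressing K562 cells in pH 7.4 Tris/HCl (50 mM) with 10 mM MgCl2.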

[10] = Metabolism stability test; assay type: in vitro ADME; settings: human liver microsomes, 30 minutes, 37° C., NADPH, 0.5 μmol/L of the compound
Experimental: Using a commercially available pooled human hepatic microsomes, a compound of the present invention was reacted for a constant time, a remaining rate was calculated by comparing a reacted sample and an unreacted sample, thereby, a degree of metabolism in liver was assessed.
A reaction was performed (oxidative reaction) at 37° C. for 0 minute or 30 minutes in the presence of 1 mmol/L NADPH in 0.2 mL of a buffer (50 mmol/L Tris-HCl pH 7.4, 150 mmol/L potassium chloride, 10 mmol/L magnesium chloride) containing 0.5 mg protein/mL of human liver microsomes. After the reaction, 50 μL of the reaction mixture was added to 100 μL of a methanol/acetonitrile=1/1 (v/v), mixed and centrifuged at 3000 rpm for 15 minutes. The compound of the present invention in the supernatant was quantified by LC/MS/MS, and a remaining amount of the compound of the present invention after the reaction was calculated, letting a compound amount at 0 minute reaction time to be 100%. Glucuronidation reaction was in the presence of 5 mM UDP-glucuronic acid in place of NADPH, followed by similar operations.

[11] = biological target: T1, CRTH2; test: CRTH2 inhibitory activity in CRTH2-expressing cells (PGD2-induced intracellular calcium increase, K562); assay type: cell-based; settings: 200 nM PGD2, read-out: IC50, inhibition of intracellular calcium concentration increase induced by PGD2
Experimental: CRTH2 inhibitory activities of compounds were determined as inhibition activity of intra-cellular calcium concentration increase induced by PGD2 in CRTH2-expressing cells.
CRTH2-expressing K562 cells were suspended at concentration of 2×10^6 cells/ml in buffer (10 mM HEPES, pH 7.4, 0.1% Bovine serum albumin). Cells were incubated with […] (4 μM) for 30 min at room temperature. Cells were washed, resuspended and mixed with various concentration of compounds of the present invention. After 2 min, cells were treated with 200 nM of PGD2. Then intracellular calcium concentration was measured using intracellular ion analyzer (FDSS3000). Inhibition ratio was defined by comparing intracellular calcium concentration increase with and without compound, and IC50 for each compound was calculated from inhibitory curve.

[12] = CRTH2 receptor binding, categorized AAAA/AAA

T1 sequence (Q9Y5Y4 whole entry): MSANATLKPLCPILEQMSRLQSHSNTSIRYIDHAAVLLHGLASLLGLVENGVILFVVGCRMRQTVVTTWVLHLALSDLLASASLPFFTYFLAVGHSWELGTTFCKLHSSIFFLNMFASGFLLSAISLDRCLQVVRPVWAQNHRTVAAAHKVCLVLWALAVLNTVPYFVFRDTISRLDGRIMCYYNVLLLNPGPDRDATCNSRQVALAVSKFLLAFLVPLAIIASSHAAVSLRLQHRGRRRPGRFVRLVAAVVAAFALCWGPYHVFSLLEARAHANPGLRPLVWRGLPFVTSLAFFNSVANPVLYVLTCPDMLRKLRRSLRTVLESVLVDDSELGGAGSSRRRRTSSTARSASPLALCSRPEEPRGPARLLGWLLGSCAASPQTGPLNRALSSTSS
Sequence of CYP2C19 (P33261 whole entry): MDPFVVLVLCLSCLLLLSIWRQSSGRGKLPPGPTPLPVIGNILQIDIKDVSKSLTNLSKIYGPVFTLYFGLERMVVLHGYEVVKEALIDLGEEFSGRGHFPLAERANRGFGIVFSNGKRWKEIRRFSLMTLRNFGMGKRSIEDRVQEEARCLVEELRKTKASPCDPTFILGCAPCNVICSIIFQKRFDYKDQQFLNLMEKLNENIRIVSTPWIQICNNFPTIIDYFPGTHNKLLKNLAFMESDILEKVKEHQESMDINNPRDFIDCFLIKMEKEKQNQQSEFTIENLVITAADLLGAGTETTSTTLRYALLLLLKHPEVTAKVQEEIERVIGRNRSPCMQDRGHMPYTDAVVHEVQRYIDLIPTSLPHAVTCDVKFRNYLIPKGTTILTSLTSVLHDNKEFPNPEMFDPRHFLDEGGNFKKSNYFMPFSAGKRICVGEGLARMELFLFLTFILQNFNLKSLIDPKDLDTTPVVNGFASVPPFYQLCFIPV
Sequence of CYP2D6 (P10635 whole entry): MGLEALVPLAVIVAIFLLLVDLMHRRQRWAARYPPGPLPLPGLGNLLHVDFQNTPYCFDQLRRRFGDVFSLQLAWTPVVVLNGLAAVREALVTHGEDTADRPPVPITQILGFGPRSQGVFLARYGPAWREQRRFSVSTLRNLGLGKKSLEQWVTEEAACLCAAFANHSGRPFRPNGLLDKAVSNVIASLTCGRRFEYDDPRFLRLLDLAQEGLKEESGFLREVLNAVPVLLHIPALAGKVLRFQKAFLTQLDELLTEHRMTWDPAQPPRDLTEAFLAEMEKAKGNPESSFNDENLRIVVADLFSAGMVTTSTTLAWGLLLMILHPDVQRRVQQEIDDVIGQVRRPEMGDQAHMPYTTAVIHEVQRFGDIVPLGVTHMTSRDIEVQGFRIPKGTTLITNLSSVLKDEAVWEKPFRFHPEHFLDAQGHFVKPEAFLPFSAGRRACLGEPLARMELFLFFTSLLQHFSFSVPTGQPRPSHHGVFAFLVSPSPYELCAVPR
Sequence of CYP3A4 (P08684 whole entry): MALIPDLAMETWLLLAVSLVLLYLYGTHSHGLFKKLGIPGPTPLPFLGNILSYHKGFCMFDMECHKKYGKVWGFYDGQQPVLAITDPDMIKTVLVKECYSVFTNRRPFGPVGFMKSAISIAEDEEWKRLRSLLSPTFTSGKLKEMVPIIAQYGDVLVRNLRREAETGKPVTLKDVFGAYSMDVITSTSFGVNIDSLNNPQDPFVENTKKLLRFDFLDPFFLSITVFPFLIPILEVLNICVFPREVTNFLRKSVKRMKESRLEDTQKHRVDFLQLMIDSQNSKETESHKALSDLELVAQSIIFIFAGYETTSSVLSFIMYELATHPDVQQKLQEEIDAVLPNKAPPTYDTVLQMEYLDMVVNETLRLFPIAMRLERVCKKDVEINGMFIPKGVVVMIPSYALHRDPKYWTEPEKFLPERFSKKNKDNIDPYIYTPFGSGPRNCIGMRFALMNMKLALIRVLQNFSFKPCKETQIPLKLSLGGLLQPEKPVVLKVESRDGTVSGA
Sequence of CYP2C9 (P11712 whole entry): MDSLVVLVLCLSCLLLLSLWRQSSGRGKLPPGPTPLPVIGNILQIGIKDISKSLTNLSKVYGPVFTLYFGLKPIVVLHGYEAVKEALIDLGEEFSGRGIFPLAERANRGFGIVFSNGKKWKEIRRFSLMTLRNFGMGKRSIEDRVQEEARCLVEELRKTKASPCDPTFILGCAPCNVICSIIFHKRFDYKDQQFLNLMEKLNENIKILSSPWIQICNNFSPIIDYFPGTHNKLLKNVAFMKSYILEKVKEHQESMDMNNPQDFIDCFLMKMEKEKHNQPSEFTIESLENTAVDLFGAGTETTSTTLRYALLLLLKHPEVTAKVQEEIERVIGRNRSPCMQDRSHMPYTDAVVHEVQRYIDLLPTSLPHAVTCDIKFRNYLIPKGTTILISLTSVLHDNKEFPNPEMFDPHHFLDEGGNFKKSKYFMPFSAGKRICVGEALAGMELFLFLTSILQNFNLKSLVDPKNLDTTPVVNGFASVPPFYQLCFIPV
Sequence of CYP1A2 (P05177 whole entry): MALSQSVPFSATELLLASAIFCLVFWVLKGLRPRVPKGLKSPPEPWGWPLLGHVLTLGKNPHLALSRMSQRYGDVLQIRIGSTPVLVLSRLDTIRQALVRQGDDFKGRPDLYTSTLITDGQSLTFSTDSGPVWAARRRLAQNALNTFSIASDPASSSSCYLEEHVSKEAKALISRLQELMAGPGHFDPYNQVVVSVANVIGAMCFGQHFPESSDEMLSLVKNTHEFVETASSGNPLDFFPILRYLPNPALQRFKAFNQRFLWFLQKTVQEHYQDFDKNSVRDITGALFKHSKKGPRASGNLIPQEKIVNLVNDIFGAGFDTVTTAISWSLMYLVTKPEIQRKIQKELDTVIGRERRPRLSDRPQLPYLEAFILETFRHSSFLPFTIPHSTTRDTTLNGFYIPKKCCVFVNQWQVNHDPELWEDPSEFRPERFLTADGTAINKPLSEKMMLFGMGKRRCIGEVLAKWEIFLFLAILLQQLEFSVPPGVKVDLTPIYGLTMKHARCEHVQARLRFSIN
Sequence of Human DP1 receptor (Q13258 whole entry): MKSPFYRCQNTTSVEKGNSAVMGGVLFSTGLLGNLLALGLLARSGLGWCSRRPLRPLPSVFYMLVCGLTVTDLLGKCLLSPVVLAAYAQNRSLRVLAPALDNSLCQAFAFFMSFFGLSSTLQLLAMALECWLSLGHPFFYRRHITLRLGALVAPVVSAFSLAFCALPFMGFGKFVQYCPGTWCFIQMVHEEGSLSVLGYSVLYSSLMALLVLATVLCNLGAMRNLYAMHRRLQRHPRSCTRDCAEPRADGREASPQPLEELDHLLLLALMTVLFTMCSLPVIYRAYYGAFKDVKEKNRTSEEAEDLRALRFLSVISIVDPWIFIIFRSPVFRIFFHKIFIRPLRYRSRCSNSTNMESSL
Sequence of CYP3A4 enzyme expressed in Escherichia coli (P08684 whole entry): as the sequence (P08684 whole entry) above

Row | difference in IC50 with vs without preincubation [1] [µM] | IC50 [2] [µM] | IC50 [3] [µM] | IC50 [4] [µM] | IC50 [5] [µM] | IC50 [6] [µM] | solubility at 16 h [7] [µM] | IC50 [8] [µM] | Ki [9, 12] [µM] | Ki [9] [µM] | remaining rate after reaction (result heading prints '% inhibition') [10] [%] | IC50 [11] [µM] | Compound
1 | ≤ 3 | 0.1 to 5 | > 20 | > 20 | > 20 | > 20 | > 50 | > 20 | < 0.1 | 0.0062 | 98.7 |  | CC(C)Oc1ccc(S(=O)(=O)N2C[C@H](n3nc(CC(=O)O)c4ccc(F)cc43)C[C@H]2CO)cc1 [Compound I-9]
2 |  | 0.1 to 5 | > 20 | > 20 | > 20 | > 20 | > 50 | > 20 | < 0.1 | 0.00059 | 94.7 | 0.086 | C[C@@H]1CN(S(=O)(=O)c2ccc(Cl)cc2)C[C@@H]1n1nc(CC(=O)O)c2ccc(F)cc21 [Compound I-49]
